# *1 amine or outer side, *2 acyl side, *3 side chain or, on linkers, in order; H or OH if unused. Where a SMILES comes first, the peptide text is derived from it. Bridges are numbered along the chain shown (N, C = ends). [ ]: non-standard residue; d: D form. X34 = O=C(C[C@@H](Cc1ccccc1)C(=O)[*:2])C12CC(CN[*:1])(C1)C2; Phe(4-guanidino) = N=C(N)Nc1ccc(C[C@H](N)C(=O)O)cc1; X22 = CNC(=N)N(C)CCC[C@@H](C(=O)[*:2])N(C)[*:1]; Ala(pyrimidin-5-yl) = N[C@@H](Cc1cncnc1)C(=O)O; X29 = CC(=O)N(C)CCC[C@@H](C(=O)[*:2])N(C)[*:1]; X20 = CN([C@@H](Cc1cnco1)C(=O)[*:2])[*:1]; Leu(4,5-dehydro) = C=C(C)C[C@H](N)C(=O)O; Lys(N3) = [N-]=[N+]=NCCCC[C@H](N)C(=O)O; X11 = CC(C)(F)CC[C@H](N[*:1])C(=O)[*:2]; Nle(5,5-F2) = CC(F)(F)CC[C@H](N)C(=O)O; Phe(3-Me) = Cc1cccc(C[C@H](N)C(=O)O)c1; Phe(4-F) = N[C@@H](Cc1ccc(F)cc1)C(=O)O; X28 = O=C([C@H](Cc1ncccn1)N[*:1])[*:2]; 1Nal = N[C@@H](Cc1cccc2ccccc12)C(=O)O; NHCH2CH2SCH2CO = O=C(CSCCN[*:1])[*:2]; X21 = O=C([C@@H]1C[C@H]1CN[*:1])[*:2]; Ala(cPent) = N[C@@H](CC1CCCC1)C(=O)O; Phe(2-F) = N[C@@H](Cc1ccccc1F)C(=O)O; X31 = O=C([C@H](CCC1CC1)N[*:1])[*:2]; NMe3Pal = CN[C@@H](Cc1cccnc1)C(=O)O; X1 = O=C(C12CC(CN[*:1])(C1)C2)[*:2]; NMeOrn(Me) = CNCCC[C@H](NC)C(=O)O; NMeR = CN[C@@H](CCCNC(=N)N)C(=O)O; Ala(cPr) = N[C@@H](CC1CC1)C(=O)O; NMeF = CN[C@@H](Cc1ccccc1)C(=O)O; PhLac = O=C(O)[C@@H](O)Cc1ccccc1; hIle = CC[C@H](C)C[C@H](N)C(=O)O; 3Pal = N[C@@H](Cc1cccnc1)C(=O)O; 4Pal = N[C@@H](Cc1ccncc1)C(=O)O; Gly(N(CH2)3NH2) = NCCCNCC(=O)O; Ahp(2) = CCCCC[C@H](N)C(=O)O; Cba = N[C@@H](CC1CCC1)C(=O)O; hLeu = CC(C)CC[C@H](N)C(=O)O; αMeC = C[C@](N)(CS)C(=O)O; NMeA = CN[C@@H](C)C(=O)O; Nle = CCCC[C@H](N)C(=O)O; Nva = CCC[C@H](N)C(=O)O
# Biological target: KRAS-G12D protein (Homo sapiens, UniProt P01116, G12D)
# Sequence (P01116 1-188 isoform P01116-2 G12D): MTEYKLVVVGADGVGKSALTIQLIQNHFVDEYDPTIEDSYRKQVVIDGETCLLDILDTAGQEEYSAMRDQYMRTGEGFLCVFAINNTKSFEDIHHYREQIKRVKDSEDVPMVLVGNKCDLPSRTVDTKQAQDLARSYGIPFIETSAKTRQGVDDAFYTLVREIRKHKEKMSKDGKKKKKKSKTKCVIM
# Experiment: SOS-mediated nucleotide exchange assay (BODIPY-GDP / Tb-streptavidin TR-FRET)
# Type: biochemical
row,Compound,EC50
1,"CCCC[C@@H]1NC(=O)[C@H](Cc2cccnc2)NC(=O)[C@H](C)N(C)C(=O)[C@H](Cc2ccc(F)cc2)NC(=O)C23CC(CNC(=O)[C@H](Cc4cccnc4)N(C)C(=O)[C@H](CCCC)NC(=O)[C@H](Cc4ccccc4F)NC1=O)(C2)C3 [compound 167, cyclo(Phe4F-NMeA-3Pal-Nle-Phe2F-Nle-NMe3Pal-amBCP)] (cyclo([3Pal][Nle][Phe(2-F)][Nle][NMe3Pal][X1][Phe(4-F)][NMeA]))",99.9 nM
2,"CCCCC[C@@H]1NC(=O)[C@H](Cc2ccc(OC)cc2)NC(=O)[C@H](CC2CCC2)NC(=O)[C@H](Cc2ccc(NC(=N)N)cc2)NC(=O)CN(CCCN)C(=O)[C@H](Cc2ccccc2)NC(=O)CSC[C@@](C)(C(N)=O)NC(=O)[C@H](Cc2ccccc2)N(C)C1=O [compound 388, cyclo(F-NPrNH2G-Phe4Gn-cBuA-TyrOMe-Ahp-NMeF-aMeCl-ClAc)] ({CH2CO}-F[Gly(N(CH2)3NH2)][Phe(4-guanidino)][Cba]Y(Me)[Ahp(2)][NMeF][αMeC]-NH2; thioether N-8)",121 nM
3,"CCCC[C@@H]1NC(=O)[C@H](Cc2cccnc2)NC(=O)[C@H](CCCNC(=N)N)N(C)C(=O)[C@H](Cc2ccccc2)NC(=O)[C@@H]2C[C@H]2CNC(=O)[C@H](Cc2ccccc2)N(C)C(=O)[C@H](CCCCN=[N+]=[N-])NC(=O)[C@H](Cc2ccc(OC)cc2)NC1=O [compound 94, cyclo(F-NMeR-3Pal-Nle-TyrOMe-LysN3-NMeF-tamcPr)] (cyclo(F[NMeR][3Pal][Nle]Y(Me)[Lys(N3)][NMeF][X21]))",224 nM
4,"CCCC[C@@H]1NC(=O)[C@H](Cc2ccncc2)NC(=O)[C@H](CCCNC(=N)N)NC(=O)[C@H](Cc2cccc3ccccc23)NC(=O)CSC[C@H](C(=O)O)NC(=O)[C@H](Cc2ccccc2)N(C)C(=O)[C@H](CCC)NC(=O)[C@H](Cc2ccc(O)cc2)NC1=O [compound 140, cyclo(INal-R-4Pal-Nle-Y-Nva-NMeF-dC-ClAc)] ({CH2CO}-[1Nal]R[4Pal][Nle]Y[Nva][NMeF][dC]-OH; thioether N-8)",1170 nM
5,"CCC[C@@H]1NC(=O)[C@H](Cc2ccc(O)cc2)NC(=O)[C@H](CC(C)C)NC(=O)[C@H](Cc2ccc(O)cc2)NC(=O)[C@H](CCCNC(=N)N)NC(=O)[C@H](Cc2ccccc2)NC(=O)CSCCNC(=O)[C@H](Cc2ccccc2)N(C)C1=O [compound 83, cyclo(F-R-Y-L-Y-Nva-NMeF-Cysteamine-ClAc)]",6350 nM
6,"C=C(C)C[C@@H]1NC(=O)[C@H](CCCC)NC(=O)[C@H](Cc2cccnc2)NC(=O)[C@H](CCCNC(=N)N)NC(=O)[C@H](Cc2ccccc2)NC(=O)CSC[C@@](C)(C(N)=O)NC(=O)[C@H](Cc2cccnc2)N(C)C(=O)[C@H](CCCC)NC1=O [compound 44, cyclo(F-R-3Pal-Nle-deHLeu-Nle-NMe3Pal-aMeCl-ClAc)] ({CH2CO}-FR[3Pal][Nle][Leu(4,5-dehydro)][Nle][NMe3Pal][αMeC]-NH2; thioether N-8)",526 nM
7,"CCC[C@@H]1NC(=O)[C@H](Cc2ccc(OC)cc2)NC(=O)[C@H](CC(C)C)NC(=O)[C@H](Cc2ccncc2)NC(=O)[C@H](CCCNC(=N)N)NC(=O)[C@H](Cc2ccc(F)cc2)NC(=O)CSCCNC(=O)[C@H](Cc2ccccc2)N(C)C1=O [compound 88, cyclo(Phe4F-R-4Pal-L-TyrOMe-Nva-NMeF-Cysteamine-ClAc)] (cyclo([4Pal]LY(Me)[Nva][NMeF][NHCH2CH2SCH2CO][Phe(4-F)]R))",3010 nM
8,"CCCCC[C@@H]1NC(=O)[C@H](Cc2ccc(OC)cc2)NC(=O)[C@H](CC2CCC2)NC(=O)[C@H](Cc2cccnc2)NC(=O)[C@H](CCCNC(=N)N)NC(=O)[C@H](Cc2ccccc2)NC(=O)CSC[C@@](C)(C(N)=O)NC(=O)[C@H](Cc2cnco2)N(C)C1=O [compound 379, cyclo(F-R-3Pal-cBuA-TyrOMe-Ahp-NMeAla5Oxa-aMeCl-ClAc)] ({CH2CO}-FR[3Pal][Cba]Y(Me)[Ahp(2)][X20][αMeC]-NH2; thioether N-8)",48.9 nM
9,"CCCC[C@@H]1NC(=O)[C@H](Cc2cncnc2)NC(=O)[C@H](C)N(C)C(=O)[C@H](Cc2ccccc2)OC(=O)C23CC(CNC(=O)[C@H](Cc4cccnc4)N(C)C(=O)[C@H](CCCC)NC(=O)[C@H](Cc4ccccc4F)NC1=O)(C2)C3 [compound 237, cyclo(FLac-NMeA-PyrimAla-Nle-Phe2F-Nle-NMe3Pal-amBCP)] (cyclo([NMe3Pal][X1][PhLac][NMeA][Ala(pyrimidin-5-yl)][Nle][Phe(2-F)][Nle]))",33.7 nM
10,"C[C@H]1C(=O)N[C@@H](Cc2cncnc2)C(=O)N[C@@H](CC2CC2)C(=O)N[C@@H](Cc2ccccc2F)C(=O)N[C@@H](CCC(C)(C)F)C(=O)N(C)[C@@H](Cc2ccccc2)C(=O)NCC23CC(C2)(C3)C(=O)C[C@@H](Cc2ccccc2)C(=O)N1C [compound 273, cyclo(CPhe-NMeA-PyrimAla-cPrA-Phe2F-hL3F-NMeF-amBCP)] (cyclo([Ala(cPr)][Phe(2-F)][X11][NMeF][X34][NMeA][Ala(pyrimidin-5-yl)]))",1 nM
11,"CCC[C@@H]1NC(=O)[C@H](Cc2ccc(OC)cc2)NC(=O)[C@H](C[C@@H](C)CC)NC(=O)[C@H](Cc2ccncc2)NC(=O)[C@H](CCCNC(=N)N)NC(=O)[C@H](Cc2ccc(F)cc2)NC(=O)CSC[C@H](C(=O)O)NC(=O)[C@H](Cc2ccccc2)N(C)C1=O [compound 62, cyclo(Phe4F-R-4Pal-hlle-TyrOMe-Nva-NMeF-dC-ClAc)] ({CH2CO}-[Phe(4-F)]R[4Pal][hIle]Y(Me)[Nva][NMeF][dC]-OH; thioether N-8)",2060 nM
12,"CC(C)CC[C@@H]1NC(=O)[C@H](Cc2ccccc2F)NC(=O)[C@H](CC2CCCC2)NC(=O)[C@H](Cc2cncnc2)NC(=O)[C@H](C)N(C)C(=O)[C@H](Cc2ccccc2)OC(=O)C23CC(CNC(=O)[C@H](Cc4ccccc4)N(C)C1=O)(C2)C3 [compound 135, cyclo(FLac-NMcA-PyrimAla-cPeA-Phe2F-hL-NMeF-amBCP)] (cyclo([Ala(cPent)][Phe(2-F)][hLeu][NMeF][X1][PhLac][NMeA][Ala(pyrimidin-5-yl)]))",4.13 nM
13,"CCC[C@@H]1NC(=O)[C@H](Cc2ccc(O)cc2)NC(=O)[C@H](CC(C)C)NC(=O)[C@H](Cc2ccc(O)cc2)NC(=O)[C@H](CCCNC(=N)N)NC(=O)[C@H](Cc2ccccc2)NC(=O)CCCNC(=O)[C@H](Cc2ccccc2)N(C)C1=O [compound 161, cyclo(F-R-Y-L-Y-Nva-NMeF-C4NH2acid)]",2840 nM
14,"CC(C)CC[C@@H]1NC(=O)[C@H](Cc2ccccc2F)NC(=O)[C@H](CC2CC2)NC(=O)[C@H](Cc2ncccn2)NC(=O)[C@H](C)N(C)C(=O)[C@H](Cc2ccccc2)OC(=O)C23CC(CNC(=O)[C@H](Cc4ccccc4)N(C)C1=O)(C2)C3 [compound 281, cyclo(FLac-NMeA-2PyrimAla-cPrA-Phe2F-hL-NMeF-amBCP)] (cyclo([Ala(cPr)][Phe(2-F)][hLeu][NMeF][X1][PhLac][NMeA][X28]))",1210 nM
15,"C[C@H]1C(=O)N[C@@H](Cc2cncnc2)C(=O)N[C@@H](CC2CC2)C(=O)N[C@@H](Cc2ccccc2F)C(=O)N[C@@H](CCC2CC2)C(=O)N(C)[C@@H](Cc2ccccc2)C(=O)NCC23CC(C2)(C3)C(=O)O[C@@H](Cc2ccccc2)C(=O)N1C [compound 114, cyclo(FLac-NMeA-PyrimAla-cPrA-Phe2F-hcPrA-NMeF-amBCP)] (cyclo([Ala(cPr)][Phe(2-F)][X31][NMeF][X1][PhLac][NMeA][Ala(pyrimidin-5-yl)]))",2 nM
16,"CCCCC[C@@H]1NC(=O)[C@H](Cc2ccc(OC)cc2)NC(=O)[C@H](CC2CCC2)NC(=O)[C@H](Cc2ccc(NC(=N)N)cc2)NC(=O)[C@H](CCCNC)N(C)C(=O)[C@H](Cc2ccccc2)NC(=O)CSC[C@@](C)(C(N)=O)NC(=O)[C@H](Cc2ccccc2)N(C)C1=O [compound 385, cyclo(F-NMeOrnMe-Phe4Gn-cBuA-TyrOMe-Ahp-NMeF-aMeCl-ClAc)] ({CH2CO}-F[NMeOrn(Me)][Phe(4-guanidino)][Cba]Y(Me)[Ahp(2)][NMeF][αMeC]-NH2; thioether N-8)",19.7 nM
17,"CCCC[C@@H]1NC(=O)[C@H](Cc2cccnc2)NC(=O)[C@H](CCCN(C)C(C)=O)N(C)C(=O)[C@H](Cc2ccccc2)OC(=O)C23CC(CNC(=O)[C@H](Cc4cccnc4)N(C)C(=O)[C@H](CCCC)NC(=O)[C@H](Cc4ccccc4F)NC1=O)(C2)C3 [compound 405, cyclo(FLac-NMeOrnAc-3Pal-Nle-Phe2F-Nle-NMe3Pal-amBCP)] (cyclo([3Pal][Nle][Phe(2-F)][Nle][NMe3Pal][X1][PhLac][X29]))",50 nM
18,"CCCC[C@@H]1NC(=O)[C@H](Cc2cccnc2)NC(=O)[C@H](C)N(C)C(=O)[C@H](Cc2cccc(C)c2)NC(=O)C23CC(CNC(=O)[C@H](Cc4cccnc4)N(C)C(=O)[C@H](CCCC)NC(=O)[C@H](Cc4ccccc4F)NC1=O)(C2)C3 [compound 166, cyclo(Phe3Me-NMeA-3Pal-Nle-Phe2F-Nle-NMe3Pal-amBCP)] (cyclo([3Pal][Nle][Phe(2-F)][Nle][NMe3Pal][X1][Phe(3-Me)][NMeA]))",22.3 nM
19,"C[C@H]1C(=O)N[C@@H](Cc2cncnc2)C(=O)N[C@@H](CCC(C)(F)F)C(=O)N[C@@H](Cc2ccccc2F)C(=O)N[C@@H](CCC(C)(F)F)C(=O)N(C)[C@@H](Cc2ccccc2)C(=O)NCC23CC(C2)(C3)C(=O)O[C@@H](Cc2ccccc2)C(=O)N1C [compound 288, cyclo(FLac-NMeA-PyrimAla-Nle3F2-Phe2F-Nle3F2-NMeF-amBCP)] (cyclo([NMeA][Ala(pyrimidin-5-yl)][Nle(5,5-F2)][Phe(2-F)][Nle(5,5-F2)][NMeF][X1][PhLac]))",247 nM
20,"CCCC[C@@H]1NC(=O)[C@H](Cc2cccnc2)NC(=O)[C@H](CCCN(C)C(=N)NC)N(C)C(=O)[C@H](Cc2ccccc2)OC(=O)CSC[C@@](C)(C(N)=O)NC(=O)[C@H](Cc2cccnc2)N(C)C(=O)[C@H](CCCC)NC(=O)[C@H](Cc2ccccc2F)NC1=O [compound 396, cyclo(FLac-NMeArg1MeMe-3Pal-Nle-Phe2F-Nle-NMe3Pal-aMeCl-ClAc)] ({CH2CO}-[PhLac][X22][3Pal][Nle][Phe(2-F)][Nle][NMe3Pal][αMeC]-NH2; thioether N-8)",1.8 nM

# Reference: patent US20260001914A1, “MACROCYCLIC PEPTIDES TARGETING KRAS” (Merck Sharp & Dohme LLC, priority 2022, published 2026)
